Active and inactive are the calls of the source. The rule behind the calls is not given here.
Key:
[1] = Aqueous stability of compound; type: physicochemical; conditions: buffer
[2] = tested on: RAW264.7; test: Antiinflammatory activity in mouse RAW264.7 cells assessed as inhibition of LPS-induced IL6 release at 5 to 10 uM preincubated for 1 hr followed by LPS stimulation and measured after 24 hrs by ELISA; type: functional, cell-based; conditions: dose 5-10 µM, time 25.0 hrs
[3] = tested on: RAW264.7; test: Cytotoxicity against mouse RAW264.7 cells assessed as reduction cell viability at 20 uM measured after 24 hrs by Celltiter-glo assay; type: cell-based; conditions: raw264.7, 24 h
[4] = tested on: RAW264.7; test: Antiinflammatory activity in mouse RAW264.7 cells assessed as inhibition of LPS-induced TNFalpha release at 5 to 10 uM preincubated for 1 hr followed by LPS stimulation and measured after 4 hrs by ELISA; type: functional, cell-based; conditions: dose 5-10 µM, time 5.0 hrs
[5] = tested on: RAW-Blue; test: Inhibition of LPS-induced NF-kappaB activity in mouse RAW-Blue cells assessed as reduction in SEAP reporter activity at 5 to 20 uM preincubated for 1 hr followed by LPS stimulation and measured after 8 to 24 hrs by SEAP reporter gene assay; type: cell-based; conditions: dose 5-20 µM, time 25.0 hrs
[6] = tested on: RAW-Blue; test: Activation of NF-kappaB activity in mouse RAW-Blue cells assessed as increase in SEAP reporter activity at 5 to 20 uM measured after 24 hrs by SEAP reporter gene assay; type: cell-based; conditions: dose 5-20 µM
[7] = tested on: RAW-Blue; test: Activation of NF-kappaB activity in mouse RAW-Blue cells assessed as increase in SEAP reporter activity at 30 uM measured after 24 hrs in presence of p38 inhibitor SB203580 by SEAP reporter gene assay; type: cell-based
[8] = GSH reactivity in PBS assessed as GSH adduct formation measured up to 8 hrs by HPLC-MS analysis; type: ADME; conditions: buffer
[9] = GSH reactivity in PBS assessed as GSH adduct formation by measuring half life by HPLC-MS analysis; type: ADME
[10] = Cytotoxicity against human L02 cells assessed as reduction in cell viability measured after 24 hrs by Celltiter-glo assay; type: cell-based
[11] = Cytotoxicity against HEK293 cells assessed as reduction in cell viability measured after 24 hrs by Celltiter-glo assay; type: cell-based; conditions: human
[12] = tested on: RAW264.7; test: Antiinflammatory activity in BSO-treated mouse RAW264.7 cells assessed as inhibition of LPS-induced TNFalpha release at 2.5 to 10 uM preincubated for 1 hr followed by LPS stimulation and measured after 4 hrs by ELISA; type: functional, cell-based; conditions: dose 2.5-10 µM, time 5.0 hrs
[13] = tested on: RAW264.7; test: Cytotoxicity against BSO-treated mouse RAW264.7 cells assessed as reduction cell viability measured after 24 hrs by Celltiter-glo assay; type: cell-based; conditions: raw264.7, 24 h, dose 10-20 µM
[14] = tested on: RAW264.7; test: Activation of JNK phosphorylation in mouse RAW264.7 cells at 50 uM measured after 4 hrs by Western blot analysis; type: cell-based
[15] = tested on: RAW264.7; test: Activation of JNK phosphorylation in BSO-treated mouse RAW264.7 cells at 50 uM measured after 4 hrs by Western blot analysis
[16] = tested on: RAW264.7; test: Antiinflammatory activity in 2 hrs NAC-pretreated mouse RAW264.7 cells assessed as inhibition of LPS-induced TNFalpha release at 10 uM preincubated for 1 hr followed by LPS stimulation and measured after 4 hrs by ELISA relative to control; type: functional; conditions: time 5 hrs
[17] = tested on: RAW264.7; test: Antiinflammatory activity in 4 hrs NAC-pretreated mouse RAW264.7 cells assessed as inhibition of LPS-induced TNFalpha release at 10 uM preincubated for 1 hr followed by LPS stimulation and measured after 4 hrs by ELISA relative to control; type: functional; conditions: time 5 hrs
[18] = tested on: RAW264.7; test: Antiinflammatory activity in 24 hrs NAC-pretreated mouse RAW264.7 cells assessed as inhibition of LPS-induced TNFalpha release at 10 uM preincubated for 1 hr followed by LPS stimulation and measured after 4 hrs by ELISA relative to control; type: functional; conditions: time 5 hrs
[19] = tested on: RAW264.7; test: Cytotoxicity against mouse RAW264.7 cells assessed as reduction cell viability at 5 to 50 uM measured after 24 hrs by Celltiter-glo assay; type: cell-based; conditions: raw264.7, 24 h, dose 5-50 µM
[20] = tested on: RAW-Blue; test: Inhibition of LPS-induced NF-kappaB activity in mouse RAW-Blue cells assessed as reduction in SEAP reporter activity at 5 to 20 uM preincubated for 1 hr followed by LPS stimulation and measured after 8 hrs by SEAP reporter gene assay; type: cell-based; conditions: dose 5-20 µM, time 9.0 hrs
[21] = tested on: RAW-Blue; test: Inhibition of LPS-induced NF-kappaB activity in mouse RAW-Blue cells assessed as reduction in SEAP reporter activity at 5 to 20 uM preincubated for 1 hr followed by LPS stimulation and measured after 24 hrs by SEAP reporter gene assay; type: cell-based; conditions: dose 5-20 µM, time 25.0 hrs
[22] = GSH reactivity in PBS assessed as isomerization measured up to 24 hrs by HPLC-MS analysis; type: ADME; conditions: buffer
[23] = target: RAC-alpha serine/threonine-protein kinase (Mus musculus) (UniProt P31750); test: Inhibition of LPS-induced AKT activation in mouse RAW264.7 cells assessed as reduction in AKT phosphorylation measured after 4 hrs by Western blot analysis; type: cell-based
Sequence of RAC-alpha serine/threonine-protein kinase (Mus musculus) (P31750 whole entry): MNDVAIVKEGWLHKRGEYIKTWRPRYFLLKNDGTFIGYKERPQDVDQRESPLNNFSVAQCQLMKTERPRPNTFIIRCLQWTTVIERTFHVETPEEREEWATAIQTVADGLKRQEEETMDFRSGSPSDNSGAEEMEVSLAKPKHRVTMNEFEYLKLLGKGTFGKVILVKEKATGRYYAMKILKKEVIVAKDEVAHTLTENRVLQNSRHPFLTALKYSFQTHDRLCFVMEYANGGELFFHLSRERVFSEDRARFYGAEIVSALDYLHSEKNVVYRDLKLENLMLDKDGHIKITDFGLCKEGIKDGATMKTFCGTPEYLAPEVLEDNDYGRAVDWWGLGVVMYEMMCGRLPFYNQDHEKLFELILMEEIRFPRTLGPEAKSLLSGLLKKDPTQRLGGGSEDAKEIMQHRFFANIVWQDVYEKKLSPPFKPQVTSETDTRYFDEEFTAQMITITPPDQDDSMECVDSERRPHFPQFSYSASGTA

[24] = Effect on total AKT expression in LPS-induced mouse RAW264.7 cells at 5 to 20 uM measured after 4 hrs by Western blot analysis; conditions: raw264.7, 4 h, dose 5-20 µM
[25] = target: T1, Mitogen-activated protein kinase 1 and 3 (ERK2 and ERK1) (Mus musculus) (UniProt P63085+Q63844); test: Inhibition of LPS-induced ERK1/2 activation in mouse RAW264.7 cells assessed as reduction in ERK1/2 phosphorylation at 20 uM measured after 4 hrs by Western blot analysis; type: cell-based
T1 sequence (P63085 whole entry, looked up): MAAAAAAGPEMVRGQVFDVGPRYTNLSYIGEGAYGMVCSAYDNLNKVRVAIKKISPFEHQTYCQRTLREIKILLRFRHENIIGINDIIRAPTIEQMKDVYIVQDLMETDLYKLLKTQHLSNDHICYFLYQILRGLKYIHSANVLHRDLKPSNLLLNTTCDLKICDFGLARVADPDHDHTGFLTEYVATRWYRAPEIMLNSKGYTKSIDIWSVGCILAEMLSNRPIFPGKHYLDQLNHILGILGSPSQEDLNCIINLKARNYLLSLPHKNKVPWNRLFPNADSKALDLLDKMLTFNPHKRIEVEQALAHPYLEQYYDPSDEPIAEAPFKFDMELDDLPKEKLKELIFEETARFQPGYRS
T1 sequence (Q63844 whole entry, looked up): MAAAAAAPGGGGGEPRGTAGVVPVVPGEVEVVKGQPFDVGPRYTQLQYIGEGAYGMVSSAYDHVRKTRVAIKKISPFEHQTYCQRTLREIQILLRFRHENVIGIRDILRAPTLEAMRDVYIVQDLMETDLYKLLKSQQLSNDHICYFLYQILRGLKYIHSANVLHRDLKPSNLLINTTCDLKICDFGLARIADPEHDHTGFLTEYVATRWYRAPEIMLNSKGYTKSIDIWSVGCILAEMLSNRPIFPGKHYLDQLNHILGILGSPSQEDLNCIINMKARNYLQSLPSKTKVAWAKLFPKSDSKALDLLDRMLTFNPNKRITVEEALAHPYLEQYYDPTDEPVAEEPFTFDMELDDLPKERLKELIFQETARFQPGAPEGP

[26] = target: T2, Nuclear factor NF-kappa-B p105 subunit (Homo sapiens) (UniProt P19838); test: Inhibition of DNA binding activity of human NF-kappaB p50 measured after 1 hr by ELISA
T2 sequence (whole entry): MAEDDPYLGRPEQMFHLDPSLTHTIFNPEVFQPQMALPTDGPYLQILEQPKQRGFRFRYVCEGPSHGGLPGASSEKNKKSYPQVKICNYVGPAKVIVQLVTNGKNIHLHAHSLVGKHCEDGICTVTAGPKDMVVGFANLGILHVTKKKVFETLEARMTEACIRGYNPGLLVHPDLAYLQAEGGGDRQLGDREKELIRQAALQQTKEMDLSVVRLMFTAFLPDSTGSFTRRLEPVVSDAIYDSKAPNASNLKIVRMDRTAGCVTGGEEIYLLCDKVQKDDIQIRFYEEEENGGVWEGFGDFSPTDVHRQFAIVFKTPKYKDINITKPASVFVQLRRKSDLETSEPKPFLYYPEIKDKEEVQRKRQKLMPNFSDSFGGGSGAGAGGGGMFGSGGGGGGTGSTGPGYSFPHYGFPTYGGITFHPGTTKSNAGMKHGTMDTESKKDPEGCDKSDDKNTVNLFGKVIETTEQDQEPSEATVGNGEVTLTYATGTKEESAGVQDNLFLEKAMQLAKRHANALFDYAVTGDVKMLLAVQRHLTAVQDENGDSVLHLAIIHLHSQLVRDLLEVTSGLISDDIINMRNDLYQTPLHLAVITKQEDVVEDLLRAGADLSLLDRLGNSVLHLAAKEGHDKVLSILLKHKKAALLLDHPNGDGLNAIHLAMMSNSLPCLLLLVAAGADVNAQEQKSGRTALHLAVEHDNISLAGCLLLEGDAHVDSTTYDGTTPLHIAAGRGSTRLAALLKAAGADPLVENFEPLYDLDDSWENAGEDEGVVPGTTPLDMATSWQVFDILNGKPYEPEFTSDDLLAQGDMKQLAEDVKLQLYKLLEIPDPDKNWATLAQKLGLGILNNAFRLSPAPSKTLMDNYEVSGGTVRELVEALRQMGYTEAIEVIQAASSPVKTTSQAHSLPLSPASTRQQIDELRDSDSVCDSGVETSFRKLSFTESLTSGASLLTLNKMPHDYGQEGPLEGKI

[27] = target: T2, Nuclear factor NF-kappa-B p105 subunit (Homo sapiens); test: Binding affinity to human NF-kappaB p50 assessed as compound-adduct formation by MALDI-TOF analysis
[28] = tested on: Mus musculus; test: Antiinflammatory activity in LPS-induced BALB/c mouse model of acute lung injury assessed as reduction in total cell count at 1 mg/kg, ip administered twice daily for 4 days starting 1 hr post LPS challenge by differential staining based flow cytometry relative to control; type: functional; parameters: scale not given: the % may be the effect or the level left; conditions: time 4 day
[29] = tested on: Mus musculus; test: Antiinflammatory activity in LPS-induced BALB/c mouse model of acute lung injury assessed as reduction in neutrophil cell count at 1 mg/kg, ip administered twice daily for 4 days starting 1 hr post LPS challenge by differential staining based flow cytometry relative to control; type: functional; parameters: scale not given: the % may be the effect or the level left; conditions: time 4 day
[30] = tested on: Mus musculus; test: Antiinflammatory activity in ip dosed LPS-induced BALB/c mouse model of acute lung injury assessed as reduction in total cell count administered twice daily for 4 days starting 1 hr post LPS challenge by differential staining based flow cytometry; type: functional, organism-based; conditions: time 4.0 day
[31] = tested on: Mus musculus; test: Antiinflammatory activity in ip dosed LPS-induced BALB/c mouse model of acute lung injury assessed as reduction in neutrophil cell count administered twice daily for 4 days starting 1 hr post LPS challenge by differential staining based flow cytometry; type: functional, organism-based; conditions: time 4.0 day
[32] = target: T1, Mitogen-activated protein kinase 1 and 3 (ERK2 and ERK1) (Mus musculus); test: Inhibition of LPS-induced ERK1/2 activation in BSO-treated mouse RAW264.7 cells assessed as reduction in ERK1/2 phosphorylation at 10 uM preincubated for 1 hr followed by LPS-stimulation measured after 4 hrs by Western blot analysis; conditions: time 5.0 hrs
[33] = target: RAC-alpha serine/threonine-protein kinase (Mus musculus) (UniProt P31750); test: Inhibition of LPS-induced AKT activation in BSO-treated mouse RAW264.7 cells assessed as reduction in AKT phosphorylation at 10 uM preincubated for 1 hr followed by LPS-stimulation measured after 4 hrs by Western blot analysis; conditions: time 5.0 hrs
[34] = tested on: RAW264.7; test: Cytotoxicity against mouse RAW264.7 cells assessed as reduction cell viability at 5 uM measured after 24 hrs by Celltiter-glo assay; type: cell-based; conditions: raw264.7, 24 h

| SMILES | Stabilty [1] | inhibition [2] | inhibition [4] | Activity [7] | K [8] | t1/2 [9] | CC50 at 24 h [10] | CC50 at 24 h [11] | inhibition at 10 µM [16] | inhibition at 10 µM [17] | inhibition at 10 µM [18] | inhibition [20] | inhibition [21] | Drug metabolism [22] | further results |
| --- | --- | --- | --- | --- | --- | --- | --- | --- | --- | --- | --- | --- | --- | --- | --- |
| C=C1CC[C@@H]2[C@](C)(CO)[C@H](O)CC[C@@]2(C)[C@@H]1C/C=C1/C(=O)OC[C@H]1O [ANDROGRAPHOLIDE] | Stable | Active | Active | inactive | 2.44e-05 M⁻¹ s⁻¹ | 5.46 h | 14.7 µM | 26.2 µM | 17% | 30% | 62% | – | – | – | Activity [3]: Toxic; inhibition [5]: inactive; Activity ([6]; filed as activator): Active; inhibition [12]: Active; CC50 [13]: 10 µM; Activity ([14]; filed as activator): Active; Activity ([15]; filed as activator): Active |
| C=C1CC[C@@H]2[C@](C)(CO)[C@H](O)CC[C@@]2(C)[C@@H]1C/C=C/C(C)=O | Stable | Active | Active | inactive | 2.11e-05 M⁻¹ s⁻¹ | 6.47 h | 30.1 µM | 67 µM | 12% | 23% | 51% | Active | Active | Metabolite_Notdetected | Activity [19]: Toxic; Activity [6]: inactive; inhibition [23]: Dose-dependent effect; Activity [24]: Non-Toxic; inhibition [25]: Active; inhibition [26]: Dose-dependent effect; Activity [27]: Active; Activity [28]: >30%; Activity [29]: >30%; Activity [30]: Dose-dependent effect; Activity [31]: Dose-dependent effect; Activity [14]: inactive; Activity [15]: inactive; inhibition [32]: Active; inhibition [33]: Active |
| C=C1CC[C@@H]2[C@](C)(CO)[C@H](O)CC[C@@]2(C)[C@@H]1C/C=C/C(=O)c1ccccc1 | Stable | Active | Active | – | 6.036e-05 M⁻¹ s⁻¹ | 2.12 h | – | – | – | – | – | Active | Active | Metabolite_Notdetected | Activity [34]: Toxic |

Reference: ChEMBL document CHEMBL4765394, “From irreversible to reversible covalent inhibitors: Harnessing the andrographolide scaffold for anti-inflammatory action” (Eur J Med Chem, 2020)
